Data set [1] can be described thus: pH of supplemented tea before and after heating. Type of data set: physicochemical. The following applies: tea with 5.7 g per quart; for Initial pH: before heating. The method, then:
Tea made from Lipton® instant tea mix was used as the basis for incorporation of samples. To prepare the tea, the following recipe was used: 2.69 g instant tea, 5.7 g GLCN or NAG (where applicable) then add water to one quart. Tea was prepared for sensory testing as follows:
Batch 2. Tea+glucosamine (pH 5-6) [GLCN from fungal biomass, see batch 2 Example 1]
Batch 3. Tea+NAG (pH 5-6) (N-Acetyl-D-glucosamine, Catalog # A-102-2, Ferro Pfanstiehl, Waukegan, Ill.)
Batch 4. Tea+glucosamine (pH 5-6) heated to 71° C. for 20 minutes
Batch 5. Tea+glucosamine heated (pH 5-6) to 90° C. for 20 seconds, flash cooled in ice water bath
Batch 6. Tea+glucosamine (pH 5-6) boiled on stove for 5 minutes, flash cooled in ice water bath
Batch 7. Tea+NAG (pH 5-6) heated to 71° C. for 20 minutes
Batch 8. Tea+NAG (pH 5-6) heated to 90° C. for 20 seconds, flash cooled in ice water bath
Batch 9. Tea+NAG (pH 5-6) boiled on stove for 5 minutes, flash cooled in ice water bath

Data set [2] is described as follows: Stability in simulated gastric fluid (SGF). The data set is classed as in vitro ADME. The following applies: 1 g in SGF with pepsin, pH about 1.2, 37° C., sampled at 0, 5, 15 and 60 minutes. How it is done:
To test the availability of NAG in the stomach, a simulated stomach environment was constructed, and a known concentration of NAG was added to simulated gastric fluid (SGF) and maintained at conditions simulating the stomach. If NAG is degraded or derivatized in the stomach, the NAG concentration will decrease. If the concentration of NAG remains the same, it is likely that the NAG is available to the body.
SGF was prepared based on a 1995 United States Pharmacopoeia (USP) monograph. An artificial stomach environment was simulated according to generally accepted practice (see Consumers Union website, 101 Truman Ave., Yonkers, N.Y. 10703-1057). To prepare simulated gastric fluid, 2.0 g of NaCl and 3.2 g of pepsin were dissolved in 7.0 mL of hydrochloric acid (concentrated) and sufficient water to make a 1000 mL solution.
NAG samples were prepared as follows. […]
Before introduction of samples into the SGF, a sample of the SGF was analyzed as a blank, to determine the baseline. Upon addition of the NAG to the SGF, a sample was immediately analyzed to determine the concentration of NAG at time zero. After introduction of NAG into the SGF, samples were pulled and analyzed at 5 minutes, 15 minutes, and 60 minutes to provide a profile of NAG concentration in the simulated stomach, and analyzed for the concentration of NAG.

A short description of data set [3]: NAG recovery following heating, acid extraction method, HPLC. To be noted: all foods and beverages of Table 14. Type of data set: physicochemical. How it is done: Food samples were homogenized prior to analysis. Where possible, samples were frozen or dried and ground. Baked goods were crumbled and mixed to produce a homogeneous material. Suitable blanks (samples with no added NAG) of each food type were analyzed to assess interferences. Mass changes between unheated ingredient mixtures and baked final products were tracked to permit accurate recovery calculations.
A food or beverage sample as described in the preceding examples containing 5 to 20 mg of N-acetylglucosamine (NAG) was dispersed in 25 g of 0.1 N HCl in a 50-mL polypropylene centrifuge tube and capped tightly. The sample was mixed for 30 seconds using a vortex mixer, then placed in a water bath at 37° C. The sample was removed from the water bath at 15-minute intervals and mixed for 30 seconds on a vortex mixer and then returned to the water bath. This cycle was repeated until the sample had been in the water bath for one hour. After heating, the sample was mixed for 30 seconds on a vortex mixer, then centrifuged for 10 minutes to separate the liquid and solid phases. Fats, oils or lipids in the sample formed a third layer at the top of the tube. […]
NAG recovery was determined using high performance liquid chromatography (HPLC) using a combination of refractive index and UV (195 nm) detection. […]

[4] abbreviates: heated to 71° C. for 20 minutes.
The mark [5] stands for this setting: heated to 90° C. for 20 seconds.

For `CC(=O)N[C@H]1C(O)O[C@H](CO)[C@@H](O)[C@@H]1O` (stereo partly drawn) [NAG, N-Acetyl-D-glucosamine], the “Initial pH” value in data set [1] was 5.46. For the same compound, the pH after heating in data set [1] (boiled 5 minutes) was found to be 5.22; in data set [1] (setting [4]) it was 5.40; in data set [1] (setting [5]), 5.31. Besides, the “Loss of NAG in simulated gastric fluid” value in data set [2] is on record as “no significant loss of NAG”. In addition, in data set [3], the “amount of NAG recovered following heating, range over Table 14 samples” value is 77%-100%.
Turning to `Cl.N[C@H]1C(O)O[C@H](CO)[C@@H](O)[C@@H]1O` (stereo partly shown) [Fungal GLCN, glucosamine hydrochloride, reference compound], in data set [1], the “Initial pH” value is recorded as 5.09. In addition, the figures for the pH after heating in data set [1] (boiled 5 minutes), in data set [1] (setting [4]) and in data set [1] (setting [5]) were 4.87, 5.13 and 5.00, respectively.

Values taken from US20060003965A1, “N-acetyl-d-glucosamine (nag) supplemented food products and beverages” (priority 2002, published 2006).
